Earlier results, collected in US20260335282A1, “NOVEL 3-ARYLIDENE-2-INDOLINONE DERIVATIVES FOR THERAPEUTIC USE” (ISTANBUL UNIVERSITESI REKTORLUGU, priority 2022, published 2026).

Legend:
VEGFR-2 = settings: Wang et al. 2021; cited from earlier work
angiogenesis = settings: transgenic zebrafish, Wang et al. 2021; cited from earlier work
HT-29 and MKN-45 cells = settings: Wang et al. 2021; cited from earlier work
HUVEC cell line = settings: Wang et al. 2021; cited from earlier work
FGFR1 = settings: Liang et al. 2012; cited from earlier work
[1] = test system: BL6-B16 melanoma and E0771 breast cancer cells; settings: Morigi et al. 2019; cited from earlier work
primary tumor = settings: combination with docetaxel, Patyna et al. 2006; cited from earlier work

Cc1ccc(-n2cc(-c3ccc(/C=C4\C(=O)Nc5ccccc54)cc3)nn2)cc1 [III]
inhibitory activity on VEGFR-2 vs sunitinib (VEGFR-2): greater inhibitory activity on VEGFR-2 | inhibitory effect on angiogenesis (angiogenesis): confirmed in vivo | cytotoxicity vs sunitinib (HT-29 and MKN-45 cells): better cytotoxicity on HT-29 and MKN-45 cells | toxicity to HUVEC vs sunitinib (HUVEC cell line): less toxic to HUVEC cell line than sunitinib

Cc1c[nH]c(/C=C2\C(=O)Nc3ccccc32)c1CCC(=O)O [SU5402, 3-[4-methyl-2-[(Z)-(2-oxo-1H-indol-3-ylidene)methyl]-1H-pyrrol-3-yl]propanoic acid]
inhibitory activity against FGFR1 vs SU4984 (FGFR1): better inhibitory activity against FGFR1 than SU4984

O=C1Nc2ccccc2/C1=C/c1nc2sccn2c1-c1ccncc1 [I]
tumor volume [1]: reduction in tumor volume

Cc1[nH]c(/C=C2\C(=O)Nc3ccc(F)cc32)c(C)c1C(=O)NCC(O)CN1CCOCC1 (stereo not shown) [SU14813]
inhibition of primary tumor growth and survival (primary tumor): significantly improve both inhibition of primary tumor growth and survival of tumor-bearing mice
